Experimental data from EP3769768A1, “COMPOUNDS USEFUL FOR THE TREATMENT OF PARKINSON S DISEASE” (priority 2019, dated 2021).
Read-outs that look alike come from different tables or passages of the source.

Experiments:
[1] = test system: lymphoblasts from G2019S LRRK2 PD patients; details: for Centrosomal cohesion deficits: three lymphoblast lines from G2019S LRRK2 PD patients, short-term application of LRRK2 kinase inhibitor, Figure 1A; for reversal of the cohesion deficit: five G2019S LRRK2 PD patients, dose-response
Source text: Peripheral blood mononuclear cells (PBMCs) were collected and processed according to manufacturer's instructions, and lymphocytes were immortalized by infection with Epstein-Barr virus (EBV) as described. Briefly, cell lines were established from freshly isolated or cryopreserved lymphocytes using standard EBV transformation protocols which include cell separation by gradient centrifugation and lymphocyte growth enhancement by 1% (v/v) of the mitogenic phytohemagglutinin-M (PHA-M, ThermoFisher Scientific, 10576015). Cell lines were maintained in RPMI 1640 medium supplemented with 20 % fetal bovine serum, 2 % L-glutamine, 20 units/mL penicillin and 20 µg/ml streptomycin in T75 flasks in 5 % CO2 at 37 °C. Cells were maintained at a density of 10^6 cells/mL, with cell density monitored every other day using trypan blue staining.
Coverslips (13 mm diameter) were placed into 24-well plates and coated with Cell-Tak Cell and Tissue Adhesive solution (Corning, nr. 354240) according to manufacturer's instructions. After 20 minutes incubation at room temperature, the solution was removed, and coverslips were rinsed twice with distilled water followed by air-drying. Lymphoblast cells (200,000/well) were added to dry coated coverslips, and cells attached by slight centrifugation at 690 g for 10 minutes at room temperature (without brake). Cells were fixed with 2 % paraformaldehyde (PFA) in phosphate-buffered saline (PBS) for 20 minutes at room temperature, followed by 5 min of ice-cold methanol fixation before permeabilization with 0.2% Triton-X100/PBS for 20 min. After blocking for 1 hour in 0.5% BSA (w/v) in 0.2% Triton-X100/PBS (blocking buffer), cells were incubated with primary antibodies overnight at 4 °C in blocking buffer. Primary antibodies included mouse monoclonal anti-γ-tubulin (1:1000; Abcam ab11316), rabbit polyclonal anti-pericentrin (1:1000; Abcam ab4448) or rabbit monoclonal anti-phospho-Rab10 (1:100; Abcam ab237703). The following day, coverslips were washed three times 10 minutes in 0.2% Triton-X100/PBS, followed by incubation with secondary antibodies (Alexa488-conjugated goat anti-mouse (1:1000; Invitrogen) and Alexa594-conjugated goat anti-rabbit (1:1000; Invitrogen)) in blocking buffer for 1 hour. Coverslips were washed three times in 0.2% Triton-X100/PBS, rinsed in PBS and mounted in mounting medium with DAPI (Vector Laboratories). For staining with the anti-phospho-Rab10 antibody, the methanol fixation was omitted, and 0.2% Triton-X100 was replaced by 0.1% saponin throughout. For treatment of cells with MLi2, cells were seeded on coated coverslips as described above, and incubated with or without MLi2 (generous gift of D. Alessi, University of Dundee, UK) (or DMSO as control) at the indicated concentrations for two hours at 37 °C, before attachment by slight centrifugation followed by fixation as described above.
Images were acquired on a Leica TCS-SP5 confocal microscope using a 63X 1.4 NA oil UV objective (HCX PLAPO CS). Images were collected using single excitation for each wavelength separately, and dependent on secondary antibodies (488 nm Argon Laser line and a 498-551 nm emission band pass; 543 HeNe laser line and a 615-671 nm emission band pass; 405 nm UV diode and a 418-467 nm emission band pass). Around 30 image sections of selected areas were acquired with a step size of 0.5 µm, and z-stack images analyzed and processed using Leica Applied Systems (LAS AF6000) image acquisition software. The same laser intensity settings, exposure times and zoom were used for image acquisition of individual experiments to be quantified.

sporadic PD lymphoblasts = experiment: Centrosomal cohesion deficit in lymphoblasts from sporadic PD patients (immunofluorescence, confocal imaging); assay type: cell-based, human; details: subset of sporadic PD patients with deficit (not G2019S carriers); short-term application of 10 nM MLi2; Figures 4A to 4D
Source text: Peripheral blood mononuclear cells (PBMCs) were collected and processed according to manufacturer's instructions, and lymphocytes were immortalized by infection with Epstein-Barr virus (EBV) as described. Briefly, cell lines were established from freshly isolated or cryopreserved lymphocytes using standard EBV transformation protocols which include cell separation by gradient centrifugation and lymphocyte growth enhancement by 1% (v/v) of the mitogenic phytohemagglutinin-M (PHA-M, ThermoFisher Scientific, 10576015). Cell lines were maintained in RPMI 1640 medium supplemented with 20 % fetal bovine serum, 2 % L-glutamine, 20 units/mL penicillin and 20 µg/ml streptomycin in T75 flasks in 5 % CO2 at 37 °C. Cells were maintained at a density of 10^6 cells/mL, with cell density monitored every other day using trypan blue staining. […]
Images were acquired on a Leica TCS-SP5 confocal microscope using a 63X 1.4 NA oil UV objective (HCX PLAPO CS). […] Around 30 image sections of selected areas were acquired with a step size of 0.5 µm, and z-stack images analyzed and processed using Leica Applied Systems (LAS AF6000) image acquisition software. The same laser intensity settings, exposure times and zoom were used for image acquisition of individual experiments to be quantified.

| Structure (SMILES) | Centrosomal cohesion deficits [1] | Centrosomal cohesion deficits (sporadic PD lymphoblasts) | reversal of the cohesion deficit ([1]; 1 nM MLi2, Figures 3A and 3B) | reversal of the cohesion deficit ([1]; 10 nM MLi2, Figures 3A and 3B) | Centrosomal deficits in all G2019S LRRK2 PD samples ([1]; larger sampling, individual samples, Figure 4C) | centrosomal alterations ([1]; larger sampling, short-term application of 10 nM MLi2, Figures 4A and 4B) | centrosomal cohesion deficits upon removal of kinase inhibitor ([1]; washout of inhibitor, G2019S LRRK2 PD samples, Figures 3A and 3B) |
| --- | --- | --- | --- | --- | --- | --- | --- |
| O=C(Nc1cccnc1)c1cc(-c2ccnc(F)c2)ccc1OCc1ccccc1 [GSK2578215A, 2-(benzyloxy)-5-(2-fluoropyridin-4-yl)-N-(pyridin-3-yl)benzamide] | could be reversed |  |  |  |  |  |  |
| CC1CN(c2cc(-c3n[nH]c4ccc(OC5(C)CC5)cc34)ncn2)CC(C)O1 (centres unmarked) [MLi2, 3-(4-Pyrimidinyl) Indazole] | could be reversed | reverted | significant reversal | complete reversal | reverted by MLi2 in all cases | reverted | reverted back to the ones observed in the absence of inhibitor |
